Read-outs that look alike come from different tables or passages of the source. A value given as a limit tells only on which side of the number the result lay.

The results in this text go back to article PMC10862539, “Chelation of Mitochondrial Iron as an Antiparasitic Strategy” (ACS Infectious Diseases, 2024).

One assay deals with G. intestinalis. The experiment in a line: Drug sensitivity assay, G. intestinalis (flow cytometry). It counts as cell-based. The following applies: Giardia duodenalis; reference compound; G. intestinalis; 24 h; read-out: control EC50. As to the method: (§1) All organisms were cultivated according to the conditions summarized in Table S2, which also includes strain specifications. Dose–response curves were obtained by their cultivation on 96 well plates in a 2-fold series dilution of the appropriate drug, in a total volume of 200 μL (with the exception of P. falciparum, where the total volume was 100 μL). Iron supplementation was achieved by mixing the compound with Fe-NTA in an equimolar ratio prior to setting up the experiment. Results were plotted and processed using Prism 8.0 (GraphPad Software). A two-tailed unpaired t-test was performed to assess the significance of the difference between mitoDFO with and without added iron. Selectivity was calculated as the ratio of the average EC50 value for human fibroblasts to the average EC50 value for the appropriate pathogen. All data were obtained from a minimum of three independent biological replicates.
A general note: In flow cytometry, cells or beads pass a laser one at a time.

The next assay deals with P. falciparum. The assay is described as follows: Drug sensitivity assay, P. falciparum (SYBR green I). The assay is classed as cell-based, Plasmodium falciparum. The following applies: Plasmodium falciparum, 48 h, read-out: control EC50. As to the method:
as §1

The subject of the next assay is T. brucei 427 (BSF). The experiment in a line: Drug sensitivity assay, T. brucei 427 bloodstream form (resazurine). The assay is classed as cell-based, Trypanosoma brucei. The following applies: Trypanosoma brucei. How it is done: as §1
In a further assay the test system is T. gambiense (BSF). The experiment in a line: Drug sensitivity assay, T. gambiense bloodstream form (resazurine). It counts as cell-based, Trypanosoma gambiense. Conditions: Trypanosoma brucei; reference compound; T. gambiense (BSF); 72 h; read-out: control EC50. How it is done:
as §1
On the technique in general: Alamar Blue is a resazurin reagent that responds to reducing activity.

The next assay deals with T. brucei STIB (BSF). The assay is described as follows: Drug sensitivity assay, T. brucei STIB bloodstream form (resazurine). The assay is classed as cell-based, Trypanosoma brucei. The following applies: Trypanosoma brucei; reference compound; T. brucei STIB (BSF); 72 h; read-out: control EC50. As to the method:
as §1

The test system of assay [1] is murine macrophage. The assay is described as follows: Intracellular L. mexicana infection assay, macrophage population. It counts as cell-based, mouse. Conditions: infected macrophages, 72 h treatment, read-out: EC50 infection assay murine macrophage. As to the method:
(§2) Approximately 10 000 murine macrophages per well were seeded on 96 well plate, and a suspension of 60 000 L. mexicana GFP-expressing promastigotes was added to each well and left to infect the mammal cells for 72 h in a cultivation medium under the conditions described in Table S2. 2-fold dilution series starting with 100 μM of either mitoDFO, DFO, or Amphotericin B in a regular growth medium were added, and cultures were incubated for further 72 h in the same conditions. Macrophage cells were washed and resuspended in growth medium and detached by pipetting, and their concentration in each well was measured on a Guava EasyCyte 8HT flow cytometer (Luminex). The GFP signal of internalized L. mexicana amastigotes in each macrophage was detected using a 488 nm excitation laser and a 525/30 nm detector. Median fluorescence graphs were plotted, and EC50 values for both macrophages and intracellular L. mexicana were calculated using Prism 8.0 (GraphPad Software).

Another assay has as its system C. albicans. The experiment in a line: Drug sensitivity assay, C. albicans (OD600). It counts as cell-based, Candida albicans. Conditions: Candida albicans; reference compound; C. albicans; 48 h; read-out: control EC50. How it is done: as §1
The next assay deals with C. neoformans. The experiment in a line: Drug sensitivity assay, C. neoformans (OD600). It counts as cell-based, Cryptococcus neoformans. Conditions: Cryptococcus neoformans; reference compound; C. neoformans; 72 h; read-out: control EC50. As to the method:
as §1

The subject of assay [2] is intracellular Leishmania mexicana amastigotes. The assay is described as follows: Intracellular L. mexicana infection assay, GFP amastigotes in macrophages. It counts as cell-based. Conditions: intracellular amastigotes, 72 h treatment, read-out: EC50 infection assay Leishmania mexicana. How it is done: as §2
The test system of assay [3] is murine macrophage. The experiment in a line: Murine macrophage axenic monoculture EC50. The following applies: axenic monoculture, read-out: EC50 axenic murine macrophage. The assay is classed as cell-based, mouse.
The subject of the next assay is A. castellanii. The experiment in a line: Drug sensitivity assay, A. castellanii (flow cytometry). It counts as cell-based, Acanthamoeba castellanii. The following applies: Acanthamoeba castellanii; reference compound; A. castellanii; 96 h; read-out: control EC50. As to the method: as §1
In another assay the test system is L. mexicana (amastigote). The experiment in a line: Drug sensitivity assay, axenic L. mexicana amastigote (flow cytometry). It counts as cell-based, Leishmania mexicana. As to the method:
as §1

A further assay relates to L. major (promastigote). The experiment in a line: Drug sensitivity assay, L. major promastigote (flow cytometry). The assay is classed as cell-based. Conditions: Leishmania major; reference compound; L. major (promastigote); 120 h; read-out: control EC50. How it is done: as §1
For a further assay, the system named is N. fowleri. The experiment in a line: Drug sensitivity assay, N. fowleri (flow cytometry). The assay is classed as cell-based. Conditions: Naegleria fowleri; reference compound; N. fowleri; 72 h; read-out: control EC50. How it is done: as §1
In a further assay the test system is B. divergens. The experiment in a line: Drug sensitivity assay, B. divergens in bovine erythrocytes (flow cytometry). The assay is classed as cell-based, Babesia divergens. Conditions: Babesia divergens, Erythrocyte; reference compound; B. divergens; 48 h; read-out: control EC50. How it is done:
as §1

Turning to `O=C(Cn1ccnc1[N+](=O)[O-])NCc1ccccc1` [benznidazole], the EC50 (commonly the concentration needed to bring the measured effect to its halfway point) with G. intestinalis stood at 2.6 ± 1.4 µM.

`CCN(CC)CCCC(C)Nc1ccnc2cc(Cl)ccc12` (stereo not drawn) [chloroquine, reference compound]: the 50% effective concentration (EC50) in the assay on P. falciparum was 0.015 ± 0.001 µM.

`N=C(N)c1ccc(OCCCCCOc2ccc(C(=N)N)cc2)cc1` [pentamidine]: the EC50 in the assay with T. brucei 427 (BSF) (reference compound, T. brucei 427 (BSF), 72 h, read-out: control EC50) is 0.007 ± 0.001 µM; with T. gambiense (BSF), 0.002 ± 0.0005 µM; with T. brucei STIB (BSF) it was 0.001 ± 0.0004 µM.

For `CSc1ccc(OCc2ncc([N+](=O)[O-])n2C)cc1` [fexinidazole], the EC50 in the assay with T. brucei 427 (BSF) (T. brucei 427, comparison drug in text, read-out: EC50) came out at 4.84 µM.

On to `C[C@@H]1[C@H](O)[C@@H](C)/C=C/C=C/C=C/C=C/C=C/C=C/C=C/[C@H](O[C@@H]2O[C@H](C)[C@@H](O)[C@H](N)[C@@H]2O)C[C@@H]2O[C@](O)(C[C@@H](O)C[C@@H](O)[C@H](O)CC[C@@H](O)C[C@@H](O)CC(=O)O[C@H]1C)C[C@H](O)[C@H]2C(=O)O` [AmpB, amphotericin B, reference compound], for which the EC50 was 29.1 ± 5.91 µM with murine macrophage [1] (Mus musculus, Macrophage); 1.5 ± 0.1 µM with C. albicans; 0.2 ± 0.1 µM in the assay with C. neoformans; 3.77 ± 0.4 µM in assay [2] (Leishmania mexicana, Macrophage); over 25 µM in the assay with murine macrophage [3] (Mus musculus, Macrophage); 8.1 ± 1.6 µM in the assay on A. castellanii. The concentration for a half-maximal effect (EC50) with L. mexicana (amastigote) (Leishmania mexicana, axenic monoculture, read-out: EC50 axenic Leishmania mexicana) worked out at 0.33 ± 0.08 µM; in the assay on L. mexicana (amastigote) (Leishmania mexicana, reference compound, L. mexicana (amastigote), 120 h, read-out: control EC50), 0.32 ± 0.035 µM; with L. major (promastigote) it was 0.024 ± 0.008 µM; with N. fowleri it was 0.069 ± 0.009 µM.

In the case of `CN(C)CCOc1ccc(/C(=C(/CCCCCCCCCC[P+](c2ccccc2)(c2ccccc2)c2ccccc2)c2ccccc2)c2ccccc2)cc1` [MitoTam], the EC50 is 0.26 µM with murine macrophage [1]; about 0.1 µM in [2]; 0.39 µM in the assay with murine macrophage [3]; 0.35 µM in the assay with L. mexicana (amastigote) (axenic monoculture, read-out: EC50 axenic Leishmania mexicana).

Consider `O=C1C(O)=C([C@H]2CC[C@H](c3ccc(Cl)cc3)CC2)C(=O)c2ccccc21` [atovaquone, reference compound], for which, in the assay on B. divergens, the concentration for a half-maximal effect (EC50) amounted to 0.008 ± 0.001 µM.
